# In patent EP0677522A1, “8-METHOXYQUINOLONECARBOXYLIC ACID DERIVATIVE” (priority 1992, dated 1994):
# What was measured:
# S. aureus Smith = experiment: Protection of mice from experimental infection; type: in vivo; settings: male mice; intraperitoneal inoculation 2.8×10⁶ cells/mouse (123×LD₅₀); oral administration one hour after inoculation; survival ratio at 7 days, probit method
# Protocol: (§1) Experimental infection was caused by intraperitoneal inoculation of respective bacteria to male mice. One hour after the inoculation, a test compound was orally administered to the mice. The therapeutic effect of each test compound was evaluated by reference to the 50% effective dose (ED₅₀) which was based on the survival ratio at 7 days after the administration according to the probit method [Proc. Soc. Exp. Med., Vol. 57, p 261-264 (1944)]. The minimum inhibitory concentration (MIC) of the infectious bacteria used was also determined. […]
# S. aureus MRSA Y-238 = experiment: Protection of mice from experimental infection; type: in vivo; settings: oral administration one hour after inoculation, survival ratio at 7 days
# Protocol: as §1
# E. coli KC-14 = experiment: Protection of mice from experimental infection; type: in vivo; settings: oral administration one hour after inoculation, survival ratio at 7 days
# Protocol: as §1
# [1] = test system: Proteus vulgaris IFO 3988; experiment: In vitro antibacterial activity (MIC), Japan Society of Chemotherapy Standard; type: cell-based; settings: IFO3988, inoculated cells 10⁶ cells/ml
# Protocol: (§2) The in vitro antibacterial activity (minimum inhibitory concentration, MIC, µg/ml) of the test compounds was determined according to Japan Society of Chemotherapy Standard [Chemotherapy, vol. 29, pp 76-79 (1981)].
# (§3) Inoculated cells were 10⁶ cells/ml and the strain with * was incubated in a medium supplemented with 10% horse blood. The mark "1)" means quinolone resistant MRSA and "2)" means quinolone resistant bacteria.
# P. mirabilis IFO 3849 = experiment: as above; type: cell-based; settings: Proteus mirabilis, IFO3849; inoculated cells 10⁶ cells/ml
# Protocol: as §2, §3
# E. faecium EFMY-28 = experiment: as above; type: cell-based; settings: Enterococcus faecium, EFMY28; inoculated cells 10⁶ cells/ml
# Protocol: as §2, §3
# [2] = test system: Serratia marcescens IFO 12648; experiment: as above; type: cell-based; settings: IFO12648, inoculated cells 10⁶ cells/ml
# Protocol: as §2, §3
# E. faecium EFMY-207 = experiment: as above; type: cell-based; settings: Enterococcus faecium, EFMY207; quinolone resistant bacteria; inoculated cells 10⁶ cells/ml
# Protocol: as §2, §3
# S. aureus No.88 = experiment: as above; type: cell-based; settings: Staphylococcus aureus; quinolone resistant MRSA; inoculated cells 10⁶ cells/ml
# Protocol: as §2, §3
# K.pneumoniae DT-S = experiment: as above; type: cell-based; settings: Klebsiella pneumoniae; inoculated cells 10⁶ cells/ml
# Protocol: as §2, §3
# [3] = test system: A.calcoaceticus IFO 13006; experiment: as above; type: cell-based; settings: Acinetobacter calcoaceticus, IFO13006; inoculated cells 10⁶ cells/ml
# Protocol: as §2, §3
# [4] = test system: Enterobacter cloacae IFO 12937; experiment: as above; type: cell-based; settings: IFO12937, inoculated cells 10⁶ cells/ml
# Protocol: as §2, §3
# S. viridans America = experiment: as above; type: cell-based; settings: Streptococcus viridans; inoculated cells 10⁶ cells/ml; medium supplemented with 10% horse blood
# Protocol: as §2, §3
# [5] = test system: Staphylococcus aureus FDA 209P; experiment: as above; type: cell-based; settings: FDA209P, inoculated cells 10⁶ cells/ml
# Protocol: as §2, §3
# S. pneumoniae Type-III = experiment: as above; type: cell-based; settings: Streptococcus pneumoniae; inoculated cells 10⁶ cells/ml; medium supplemented with 10% horse blood
# Protocol: as §2, §3
# [6] = test system: Streptococcus pyogenes C-203; experiment: as above; type: cell-based; settings: C203, inoculated cells 10⁶ cells/ml, medium supplemented with 10% horse blood
# Protocol: as §2, §3
# [7] = test system: Citrobacter freundii IFO 12681; experiment: as above; type: cell-based; settings: IFO12681, inoculated cells 10⁶ cells/ml
# Protocol: as §2, §3
# M.catarrhalis ATCC 25238 = experiment: as above; type: cell-based; settings: Moraxella catarrhalis, ATCC25238; inoculated cells 10⁶ cells/ml; medium supplemented with 10% horse blood
# Protocol: as §2, §3
# [8] = test system: S. epidermidis ATCC 12228; experiment: as above; type: cell-based; settings: Staphylococcus epidermidis, ATCC12228; inoculated cells 10⁶ cells/ml
# Protocol: as §2, §3
# [9] = test system: Pseudomonas aeruginosa IFO 12582; experiment: as above; type: cell-based; settings: IFO12582, inoculated cells 10⁶ cells/ml
# Protocol: as §2, §3
# P.aeruginosa U-31 = experiment: as above; type: cell-based; settings: Pseudomonas aeruginosa, U31; inoculated cells 10⁶ cells/ml
# Protocol: as §2, §3
# L.monocytogenes VTU-206 = experiment: as above; type: cell-based; settings: Listeria monocytogenes, VTU206; inoculated cells 10⁶ cells/ml; medium supplemented with 10% horse blood
# Protocol: as §2, §3
# Shigella flexneri EW-10 = experiment: as above; type: cell-based; settings: EW10, inoculated cells 10⁶ cells/ml
# Protocol: as §2, §3
# B. fragilis BFY-18 = experiment: Antibacterial effect against specific bacteria (MIC); type: cell-based; settings: Bacteroides fragilis, BFY18; same manner as Experimental Example 1
# Protocol: as §2
# (§4) In the same manner as in Experimental Example 1, the antibacterial effect against specific bacteria such as Chlamydia, Mycoplasma and acid-fast bacteria and anaerobic bacteria was determined.
# [10] = test system: Ureaplasma urealyticum ATCC 27618; experiment: as above; type: cell-based; settings: ATCC27618, same manner as Experimental Example 1
# Protocol: as §2, §4
# [11] = test system: Chlamydia trachomatis D/UW-3Cx; experiment: as above; type: cell-based; settings: same manner as Experimental Example 1
# Protocol: as §2, §4
# [12] = test system: Mycobacterium smegmatis IFO 13167; experiment: as above; type: cell-based; settings: Mycolicibacterium smegmatis, IFO13167; same manner as Experimental Example 1
# Protocol: as §2, §4
# [13] = test system: Bacteroides fragilis GAI 5560; experiment: as above; type: cell-based; settings: GAI5560, same manner as Experimental Example 1
# Protocol: as §2, §4
# [14] = test system: Mycoplasma pneumoniae ATCC 29343; experiment: as above; type: cell-based; settings: ATCC29343, same manner as Experimental Example 1
# Protocol: as §2, §4
# [15] = test system: Mycobacterium smegmatis IFO 3153; experiment: as above; type: cell-based; settings: Mycolicibacterium smegmatis, IFO3153; same manner as Experimental Example 1
# Protocol: as §2, §4
compound,measurement,setting,value
"CC1COc2c(N3CCN(C)CC3)c(F)cc3c(=O)c(C(=O)O)cn1c23 (centres unmarked) [Comp. Ex. 2, 9-fluoro-2,3-dihydro-3-methyl-10-(4-methyl-1-piperazinyl)-7-oxo-7H-pyrido [1. 2. 3-de) [1.4] benzoxazine-6-carboxylic acid, reference compound]",ED₅₀ (mg/mouse) (95% confidence limit),S. aureus Smith,0.208(0.137-0.344) mg/mouse
same,ED₅₀ (mg/mouse) (95% confidence limit),"S. aureus MRSA Y-238; Table 3-1: male mice, intraperitoneal inoculation 7.5×10⁶ cells/mouse (185×LD₅₀)",> 16 mg/mouse
same,ED₅₀ (mg/mouse) (95% confidence limit),"S. aureus MRSA Y-238; Table 3-2: male mice, intraperitoneal inoculation 7.5×10⁵ cells/mouse (185×LD₅₀)",> 16 mg/mouse
same,ED₅₀ (mg/mouse) (95% confidence limit),"E. coli KC-14; Table 3-1: male mice, intraperitoneal inoculation 5.0×10⁶ cells/mouse (744×LD₅₀)",0.012(0.009-0.018) mg/mouse
same,ED₅₀ (mg/mouse) (95% confidence limit),"E. coli KC-14; Table 3-2: male mice, intraperitoneal inoculation (744×LD₅₀)",0.012(0.009-0.018) mg/mouse
same,MIC,[1],0.1 µg/mL
same,MIC,P. mirabilis IFO 3849,0.39 µg/mL
same,MIC,E. faecium EFMY-28,3.13 µg/mL
same,MIC,[2],0.2 µg/mL
same,MIC,E. faecium EFMY-207,100 µg/mL
same,MIC,S. aureus No.88,50 µg/mL
same,MIC,K.pneumoniae DT-S,0.05 µg/mL
same,MIC,[3],0.2 µg/mL
same,MIC,[4],0.39 µg/mL
same,MIC,S. viridans America,3.13 µg/mL
same,MIC,[5],0.2 µg/mL
same,MIC,S. pneumoniae Type-III,0.78 µg/mL
same,MIC,[6],1.56 µg/mL
same,MIC,[7],0.1 µg/mL
same,MIC,M.catarrhalis ATCC 25238,0.1 µg/mL
same,MIC,[8],0.2 µg/mL
same,MIC,[9],1.56 µg/mL
same,MIC,P.aeruginosa U-31,1.56 µg/mL
same,MIC,L.monocytogenes VTU-206,3.13 µg/mL
same,MIC,Shigella flexneri EW-10,0.05 µg/mL
same,MIC,B. fragilis BFY-18,1.56 µg/mL
same,MIC,[10],3.13 µg/mL
same,MIC,[11],0.39 µg/mL
same,MIC,[12],0.39 µg/mL
same,MIC,[13],1.56 µg/mL
same,MIC,[14],1.56 µg/mL
same,MIC,[15],0.39 µg/mL
